# Values of other authors as cited in patent US20030225101A1 (priority 2002, published 2003).
# How the values were obtained:
# [1] = test system: isolated corpus cavernosum
# [2] = oral administration
structure (smiles),measurement,setting,value
"CCCc1nn(C)c2c(=O)[nH]c(-c3cc(S(=O)(=O)N4CCN(C)CC4)ccc3OCC)nc12 [sildenafil, 1-[4-ethoxy-3-(6,7-dihydro-1-methyl-7-oxo-3-propyl-1H-pyrazolo[4,3-d]pyrimidin-5-yl)phenylsulphonyl]-4-methylpiperazine]",direct relaxant effect on isolated corpus cavernosum,[1],no direct relaxant effect
same,absolute bioavailability,[2],about 40%
